The nature of assay [1]: Compound evaluated for the inhibitory concentration of S49 Mouse Lymphoma T-cells. Format: functional, cell-based.
Assay [2] can be described thus: Compound along with 10 uM of erythro-9-(2-hydroxy-3-nonyl)adenine (EHNA) was tested against mouse lymphoma T-cells. Format: functional.

pIC50: −log10 of the molar value.

Here are results for 3 molecules from ChEMBL document CHEMBL1123148, “Improved synthesis of 2'-deoxyformycin A and studies of its in vitro activity against mouse lymphoma of T-cell origin” (J Med Chem, 1985).

Take `Nc1ncnc2c([C@H]3C[C@H](O)[C@@H](CO)O3)n[nH]c12`: the results for the pIC50 in assay [1] and in assay [2] were 4.87 and 5.03, respectively.
For `Nc1ncnc2c([C@@H]3O[C@H](CO)[C@@H](O)[C@H]3O)[nH]nc12` [FORMYCIN] the same measures were 5.64 and 7.52.
For `Nc1ncnc2c1ncn2[C@H]1C[C@H](O)[C@@H](CO)O1` [DEOXYADENOSINE] the same measures were 3.74 and 5.35.
